Results from patent US11046945B2, “Labeled glutaminase proteins, isolated glutaminase protein mutants, methods of use, and kit” (CORNELL UNIVERSITY, priority 2013, dated 2021).

Target: T1, GAC (Mus musculus, UniProt D3Z7P3)
T1 construct: plasmid (residues 72-603 for GAC, 72-674 for KGA); His-tag with thrombin cleavage site (N, cleaved yes); made in house; host or cells: pET23a vector
T1 sequence (D3Z7P3 72-603 isoform D3Z7P3-2): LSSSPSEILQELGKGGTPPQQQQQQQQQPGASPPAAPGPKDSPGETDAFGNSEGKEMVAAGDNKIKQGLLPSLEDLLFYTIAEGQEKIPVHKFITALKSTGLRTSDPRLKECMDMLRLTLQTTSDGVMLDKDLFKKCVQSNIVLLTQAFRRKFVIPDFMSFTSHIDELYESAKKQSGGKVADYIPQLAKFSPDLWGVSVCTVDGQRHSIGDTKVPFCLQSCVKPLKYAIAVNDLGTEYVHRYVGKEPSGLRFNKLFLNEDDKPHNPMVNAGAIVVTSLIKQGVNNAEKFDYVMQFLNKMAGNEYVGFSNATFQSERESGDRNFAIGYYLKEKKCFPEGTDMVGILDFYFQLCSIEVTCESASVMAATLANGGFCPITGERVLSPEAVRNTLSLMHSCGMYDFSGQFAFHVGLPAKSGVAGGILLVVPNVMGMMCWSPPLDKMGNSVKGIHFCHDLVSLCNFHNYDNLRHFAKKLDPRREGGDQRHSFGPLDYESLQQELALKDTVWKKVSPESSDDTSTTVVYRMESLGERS
Test: FRET assay of GAC tetramer formation (488-GAC donor, QSY 9-GAC acceptor)
Assay type: binding
Settings: for effect on 488-GAC fluorescence emission in equilibrated 488-GAC/QSY 9-GAC mixture: 20 nM 488-GAC and 200 nM QSY 9-GAC
Text: A mouse kidney type glutaminase isoform 1 (KGA, NP_001074550.1, which is hereby incorporated by reference in its entirety (SEQ ID NO:7)) and isoform 2 (GAC, NP_001106854.1, which is hereby incorporated by reference in its entirety (SEQ ID NO:3)) plasmid (residues 72-603 for GAC, 72-674 for KGA) was cloned into a pET23a vector containing an N-terminal histidine (His)-tag and thrombin cleavage site. The expressed protein was initially purified using Co^2+ affinity beads (Clontech), after which the His-tag was cleaved with human thrombin (Haemetologic Technologies) overnight at 4° C. and subsequently purified by anion exchange (GE healthcare) and gel filtration chromatography. Purified GAC or KGA was stored in a high salt containing buffer (20 mM Tris-HCl pH 8.5, 500 mM NaCl, 1 mM NaN3) and stored at −80° C. following snap freezing in liquid N2 for long term use. For labeling recombinant GAC or KGA with small molecule probes, 1.5 mg of enzyme was exchanged to 50 mM HEPES pH 7.2, 100 mM NaCl using a PD10 desalting column (GE healthcare) and incubated with 50 μM (5-fold excess of enzyme) of either ALEXA FLUOR® 488 succinimidyl ester or QSY® 9 succinimidyl ester (Molecular Probes) for 1 hr at 4° C. After 1 hr, the labeling reaction was quenched with 150 mM Tris-HCl pH 8.5 and unreacted probe was separated from labeled-enzyme using a PD10 desalting column eluting labeled-GAC back into the high salt containing buffer.
Fluorescence experiments were performed using a Varian Carry Eclipse Fluorometer in the counting mode. Excitation and emission wavelengths were 490 and 520 nm, respectively. Experiments were all prepared as one-mL samples and stirred continuously at 20° C. in 50 mM Tris-Acetate pH 8.5, 0.1 mM ethylenediaminetetraacetic acid (EDTA). For WT GAC titrations in the absence of inorganic phosphate, 10 nM 488-GAC was equilibrated followed by injection of 25 μL of the appropriate concentration of QSY® 9-GAC and was allowed to equilibrate for 10 minutes at which point 75 μL of the appropriate concentration of unlabeled WT GAC was added to give a concentration that was ten-times that of labeled-GAC (i.e., 10-fold excess). For FRET experiments prepared for inorganic phosphate titrations, a similar protocol was followed whereby 10 nM of 488-GAC was equilibrated with 400 nM QSY® 9-GAC followed by injection of 100 μL of the appropriate concentration of K2HPO4 prepared in 50 mM Tris-Acetate (pH=8.5) 0.1 mM EDTA buffer. To test whether purified mutants can form oligomers with WT GAC, 200 nM QSY® 9-D391K-GAC or 200 nM QSY® 9-K316E-D391K-R459E was added to an equilibrated sample of 20 nM 488-WT GAC. Likewise, when assaying the effects of BPTES and 968 on oligomer formation, BPTES or 968 (10 μM or 25 μM, respectively) was added following equilibration of a sample of 200 nM of QSY® 9-WT GAC and 20 nM 488-WT GAC. Both BPTES and 968 were prepared in DMSO, and appropriate dilutions were made so that less than 2% (v/v) DMSO was added to an experimental sample.

SMILES | effect on 488-GAC fluorescence emission in equilibrated 488-GAC/QSY 9-GAC mixture (10 μM BPTES) | reversal of induced tetramers/quenching by excess unlabeled GAC (10 μM BPTES, 10-fold excess unlabeled GAC) | effect on 488-GAC fluorescence emission in equilibrated 488-GAC/QSY 9-GAC mixture (25 μM 968)
O=C(Cc1ccccc1)Nc1nnc(CCSCCc2nnc(NC(=O)Cc3ccccc3)s2)s1 [BPTES] | immediate quenching | stable and not disrupted | –
CN(C)c1ccc(C2Nc3ccc4ccccc4c3C3=C2C(=O)CC(C)(C)C3)cc1Br (stereo not drawn) [compound 968] | – | – | significant change in the fluorescence emission
